From ChEMBL document CHEMBL5131409, “Synthesis and characterization of chiral 6-azaspiro[2.5]octanes as potent and selective antagonists of the M4 muscarinic acetylcholine receptor” (Bioorg Med Chem Lett, 2022)
Residue numbers refer to the chain shown, from its start.

Tests used:
[1] = target: T1, Muscarinic acetylcholine receptor M1 (Rattus norvegicus, UniProt P08482); assay: Inhibition of rat muscarinic acetylcholine M1 receptor expressed in CHO cells co-expressing Gqi5 preincubated with compound followed by acetylcholine addition at EC80 concentration by calcium mobilization assay; assay type: functional, cell-based
T1 sequence (P08482 whole entry): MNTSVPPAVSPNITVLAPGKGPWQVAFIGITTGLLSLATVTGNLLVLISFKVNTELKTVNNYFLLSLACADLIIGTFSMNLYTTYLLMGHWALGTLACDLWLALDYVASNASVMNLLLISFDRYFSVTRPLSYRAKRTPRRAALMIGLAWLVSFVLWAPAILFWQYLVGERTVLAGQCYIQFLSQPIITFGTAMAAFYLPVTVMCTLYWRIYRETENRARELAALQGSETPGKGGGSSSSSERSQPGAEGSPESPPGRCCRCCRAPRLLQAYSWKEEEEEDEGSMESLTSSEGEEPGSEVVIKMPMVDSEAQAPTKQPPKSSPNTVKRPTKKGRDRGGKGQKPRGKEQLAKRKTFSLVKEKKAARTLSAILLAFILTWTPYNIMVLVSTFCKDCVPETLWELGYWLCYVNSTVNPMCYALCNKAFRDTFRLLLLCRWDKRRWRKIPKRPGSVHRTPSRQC

[2] = Unbound Cmax in rat plasma at 3 mg/kg, ip; assay type: ADME, organism-based; conditions: in vivo
[3] = AUC (0.25 to last) in mouse brain at 3 mg/kg, ip; assay type: ADME, organism-based; conditions: in vivo
[4] = Tmax in mouse brain at 3 mg/kg, ip; assay type: ADME, organism-based
[5] = target: T2, Muscarinic acetylcholine receptor M4 (Homo sapiens, UniProt P08173); assay: Inhibition of human muscarinic acetylcholine M4 receptor expressed in CHO cells co-expressing Gqi5 in the presence of acetylcholine at EC80 concentration by calcium mobilization assay; assay type: functional, cell-based
T2 sequence (P08173 whole entry): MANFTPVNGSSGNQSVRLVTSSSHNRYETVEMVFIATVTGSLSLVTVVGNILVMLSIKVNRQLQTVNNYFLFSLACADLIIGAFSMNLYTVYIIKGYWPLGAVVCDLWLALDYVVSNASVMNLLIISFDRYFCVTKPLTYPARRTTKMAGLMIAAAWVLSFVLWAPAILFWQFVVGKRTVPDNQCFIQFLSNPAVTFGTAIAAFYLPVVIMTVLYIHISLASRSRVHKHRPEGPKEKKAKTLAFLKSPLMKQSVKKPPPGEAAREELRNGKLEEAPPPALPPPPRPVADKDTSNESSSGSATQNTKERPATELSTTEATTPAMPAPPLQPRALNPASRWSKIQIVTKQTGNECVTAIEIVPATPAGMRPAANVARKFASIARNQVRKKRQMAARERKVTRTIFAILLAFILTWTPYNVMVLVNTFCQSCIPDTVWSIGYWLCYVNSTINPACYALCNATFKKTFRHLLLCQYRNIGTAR

[6] = Cmax in rat plasma at 3 mg/kg, ip; assay type: ADME, organism-based; set-up: dose 3 mg/kg, route ip
[7] = target: T3, Muscarinic acetylcholine receptor M1 (Homo sapiens, UniProt P11229); assay: Inhibition of human muscarinic acetylcholine M1 receptor expressed in CHO cells co-expressing Gqi5 preincubated with compound followed by acetylcholine addition at EC80 concentration by calcium mobilization assay; assay type: functional, cell-based
T3 sequence (P11229 whole entry): T1 sequence (P08482 whole entry) with V5A, S254T, S309P, K320R, G337A, V413I

[8] = MRT in rat at 3 mg/kg, iv; assay type: ADME, organism-based; conditions: in vivo
[9] = target: Muscarinic acetylcholine receptor M3 (Rattus norvegicus, UniProt P08483); assay: Inhibition of rat muscarinic acetylcholine M3 receptor expressed in CHO cells co-expressing Gqi5 preincubated with compound followed by acetylcholine addition at EC80 concentration by calcium mobilization assay; assay type: functional, cell-based
Chain of Muscarinic acetylcholine receptor M3 (P08483 whole entry): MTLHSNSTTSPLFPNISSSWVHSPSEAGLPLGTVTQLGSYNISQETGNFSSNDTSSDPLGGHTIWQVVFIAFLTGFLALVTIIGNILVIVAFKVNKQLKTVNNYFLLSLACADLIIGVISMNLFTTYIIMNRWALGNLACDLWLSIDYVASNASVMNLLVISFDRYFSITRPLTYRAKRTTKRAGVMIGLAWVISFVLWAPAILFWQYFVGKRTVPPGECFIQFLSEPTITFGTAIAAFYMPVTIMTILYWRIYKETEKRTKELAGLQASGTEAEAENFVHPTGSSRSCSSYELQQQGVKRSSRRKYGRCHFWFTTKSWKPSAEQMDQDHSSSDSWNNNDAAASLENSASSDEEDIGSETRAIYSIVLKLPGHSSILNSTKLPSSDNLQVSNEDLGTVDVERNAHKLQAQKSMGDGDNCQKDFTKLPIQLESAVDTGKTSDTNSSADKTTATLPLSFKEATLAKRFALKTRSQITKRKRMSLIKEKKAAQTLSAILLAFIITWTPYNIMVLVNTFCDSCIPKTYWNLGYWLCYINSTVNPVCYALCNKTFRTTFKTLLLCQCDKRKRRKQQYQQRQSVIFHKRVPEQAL

[10] = Tmax in rat plasma at 3 mg/kg, ip; assay type: ADME, organism-based
[11] = Tmax in mouse plasma at 3 mg/kg, ip; assay type: ADME, organism-based
[12] = target: T4, Muscarinic acetylcholine receptor M2 (Homo sapiens, UniProt P08172); assay: Inhibition of human muscarinic acetylcholine M2 receptor expressed in CHO cells co-expressing Gqi5 preincubated with compound followed by acetylcholine addition at EC80 concentration by calcium mobilization assay; assay type: functional, cell-based
T4 sequence (P08172 whole entry): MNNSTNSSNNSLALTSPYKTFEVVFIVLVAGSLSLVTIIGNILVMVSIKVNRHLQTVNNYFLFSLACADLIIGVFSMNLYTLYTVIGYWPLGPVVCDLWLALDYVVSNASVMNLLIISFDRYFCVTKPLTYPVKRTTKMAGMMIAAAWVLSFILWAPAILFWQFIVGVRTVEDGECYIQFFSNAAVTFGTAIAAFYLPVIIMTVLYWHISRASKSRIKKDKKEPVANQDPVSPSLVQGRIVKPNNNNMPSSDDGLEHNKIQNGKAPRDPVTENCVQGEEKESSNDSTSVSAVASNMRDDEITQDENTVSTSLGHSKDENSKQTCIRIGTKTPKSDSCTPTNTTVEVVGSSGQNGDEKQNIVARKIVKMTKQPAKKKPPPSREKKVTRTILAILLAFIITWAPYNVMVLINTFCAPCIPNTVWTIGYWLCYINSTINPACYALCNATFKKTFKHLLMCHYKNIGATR

Compound: CC(=O)Nc1ccc(-c2ccc(NC[C@@H]3CC34CCN(CC3CCOCC3)CC4)nn2)cc1
- IC50 [1]: > 10 µM
- fCmax [2]: 1656 ng/mL
- AUClast [3]: 3980 ng·h/g
- Tmax [4]: 2 h
- IC50 [5]: 71 nM
- Cmax [6]: 6700 ng/mL
- IC50 [7]: > 10 µM
- MRT [8]: 9.33 h
- IC50 [9]: > 10 µM
- Tmax [10]: 15 min
- Tmax [11]: 30 min
- IC50 [12]: > 10 µM
